Data: ChEMBL document CHEMBL1140572, “Next-generation spirobenzazepines: identification of RWJ-676070 as a balanced vasopressin V1a/V2 receptor antagonist for human clinical studies” (Bioorg Med Chem Lett, 2007)

What was measured:
Vasopressin V2 receptor [1] = target: T1, Vasopressin V2 receptor (Homo sapiens, UniProt P30518); experiment: Antagonist activity at human vasopressin V2 receptor expressed in HEK293 cells assessed as inhibition of Arg-vasopressin-induced cAMP levels; assay type: functional, cell-based
Vasopressin V1a receptor [2] = target: T2, Vasopressin V1a receptor (Homo sapiens, UniProt P37288); experiment: Antagonist activity at human vasopressin V1a receptor expressed in HEK293 cells assessed as inhibition of Arg-vasopressin-induced intracellular calcium level; assay type: functional, cell-based
Target sequence in this assay (P37288 whole entry): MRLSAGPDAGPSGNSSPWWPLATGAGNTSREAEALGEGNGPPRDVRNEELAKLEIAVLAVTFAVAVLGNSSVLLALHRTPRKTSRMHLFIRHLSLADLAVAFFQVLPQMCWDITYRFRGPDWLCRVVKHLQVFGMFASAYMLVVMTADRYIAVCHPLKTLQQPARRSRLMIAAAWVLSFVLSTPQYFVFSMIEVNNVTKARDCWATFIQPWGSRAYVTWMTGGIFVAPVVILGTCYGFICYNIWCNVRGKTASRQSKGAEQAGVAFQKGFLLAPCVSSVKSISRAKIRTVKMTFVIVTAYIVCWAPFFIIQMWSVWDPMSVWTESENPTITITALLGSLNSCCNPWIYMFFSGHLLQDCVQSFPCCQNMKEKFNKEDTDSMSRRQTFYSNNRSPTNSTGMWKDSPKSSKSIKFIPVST

Vasopressin V2 receptor [3] = target: T1, Vasopressin V2 receptor; experiment: Displacement of [3H]Arg-vasopressin from human recombinant vasopressin V2 receptor expressed in HEK293 cells; assay type: cell-based
Vasopressin V1a receptor [4] = target: T2, Vasopressin V1a receptor; experiment: Displacement of [3H]Arg-vasopressin from human recombinant vasopressin V1a receptor expressed in HEK293 cells; assay type: cell-based
Target sequence in this assay (P37288 whole entry): as above

Vasopressin V2 receptor [5] = target: T1, Vasopressin V2 receptor; experiment: Displacement of [3H]Arg-vasopressin from human recombinant vasopressin V2 receptor expressed in HEK293 cells at 100 nM; assay type: cell-based
Vasopressin V1a receptor [6] = target: T2, Vasopressin V1a receptor; experiment: Displacement of [3H]Arg-vasopressin from human recombinant vasopressin V1a receptor expressed in HEK293 cells at 100 nM; assay type: cell-based
Target sequence in this assay (P37288 whole entry, looked up): as the sequence (P37288 whole entry) above

[7] = Half life in dog plasma; assay type: ADME, organism-based, Canis lupus familiaris
Rattus norvegicus [8] = experiment: Aquaretic effect in hydrated conscious rat assessed as increase in urine volume at 30 mg/kg, po relative to control; assay type: functional
[9] = Aqueous solubility at pH 7.4; assay type: physicochemical
Vasopressin V1a receptor [10] = target: Vasopressin V1a receptor (Rattus norvegicus, UniProt P30560); experiment: Antagonist activity at rat vasopressin V1a receptor expressed in HEK293 cells assessed as inhibition of Arg-vasopressin-induced intracellular calcium level; assay type: functional, cell-based
[11] = Oral bioavailability in cynomolgus monkey; assay type: ADME, organism-based, Macaca fascicularis; conditions: in vivo
[12] = Oral bioavailability in rat; assay type: ADME, organism-based; conditions: in vivo
Rattus norvegicus [13] = experiment: Reversal of Arg-vasopressin-induced hypertension in iv dosed Long-Evans rat assessed as reduction of blood pressure; assay type: functional
Rattus norvegicus [14] = experiment: Aquaretic effect in hydrated conscious rat assessed as reduction of urine osmolality at 1 mg/kg, po relative to control; assay type: functional; parameters: scale not given: the % may be the effect or the level left
[15] = Half life in cynomolgus monkey plasma; assay type: ADME, organism-based, Macaca fascicularis
Rattus norvegicus [16] = experiment: Aquaretic effect in hydrated conscious rat assessed as increase in urine volume at 3 mg/kg, po relative to control; assay type: functional
Rattus norvegicus [17] = experiment: Aquaretic effect in hydrated conscious rat assessed as reduction of urine osmolality at 3 mg/kg, po relative to control; assay type: functional; parameters: scale not given: the % may be the effect or the level left
[18] = Oral bioavailability in dog; assay type: ADME, organism-based, Canis lupus familiaris; conditions: in vivo
Rattus norvegicus [19] = experiment: Aquaretic effect in hydrated conscious rat assessed as increase in urine volume at 1 mg/kg, po relative to control; assay type: functional
Canis familiaris [20] = experiment: Aquaretic effect in Beagle dog assessed as reduction of urine osmolality at 30 mg/kg, po relative to control; assay type: functional, Canis lupus familiaris; parameters: scale not given: the % may be the effect or the level left
Rattus norvegicus [21] = experiment: Aquaretic effect in hydrated conscious rat assessed as reduction of urine osmolality at 10 mg/kg, po relative to control; assay type: functional; parameters: scale not given: the % may be the effect or the level left
Rattus norvegicus [22] = experiment: Aquaretic effect in hydrated conscious rat assessed as increase in urine volume at 10 mg/kg, po relative to control; assay type: functional
[23] = Half life in rat plasma; assay type: ADME, organism-based
Rattus norvegicus [24] = experiment: Aquaretic effect in hydrated conscious rat assessed as reduction of urine osmolality at 30 mg/kg, po relative to control; assay type: functional; parameters: scale not given: the % may be the effect or the level left
Vasopressin V2 receptor [25] = target: Vasopressin V2 receptor (Rattus norvegicus, UniProt Q00788); experiment: Antagonist activity at rat vasopressin V2 receptor expressed in HEK293 cells assessed as inhibition of Arg-vasopressin-induced cAMP levels; assay type: functional, cell-based
Canis familiaris [26] = experiment: Aquaretic effect in Beagle dog assessed as increase in urine volume at 30 mg/kg, po relative to control; assay type: functional, Canis lupus familiaris

T1 sequence (P30518 whole entry): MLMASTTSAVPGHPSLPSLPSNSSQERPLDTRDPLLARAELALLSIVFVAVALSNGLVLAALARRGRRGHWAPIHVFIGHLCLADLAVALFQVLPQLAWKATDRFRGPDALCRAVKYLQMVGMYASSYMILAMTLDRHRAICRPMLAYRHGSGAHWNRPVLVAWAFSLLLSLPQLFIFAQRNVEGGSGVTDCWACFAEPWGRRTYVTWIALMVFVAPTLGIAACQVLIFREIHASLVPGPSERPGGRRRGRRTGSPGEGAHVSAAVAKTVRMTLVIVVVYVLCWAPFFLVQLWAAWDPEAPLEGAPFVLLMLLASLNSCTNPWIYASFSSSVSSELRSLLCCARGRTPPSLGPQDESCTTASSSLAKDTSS
Chain of Vasopressin V2 receptor (Rattus norvegicus, UniProt Q00788) (Q00788 whole entry): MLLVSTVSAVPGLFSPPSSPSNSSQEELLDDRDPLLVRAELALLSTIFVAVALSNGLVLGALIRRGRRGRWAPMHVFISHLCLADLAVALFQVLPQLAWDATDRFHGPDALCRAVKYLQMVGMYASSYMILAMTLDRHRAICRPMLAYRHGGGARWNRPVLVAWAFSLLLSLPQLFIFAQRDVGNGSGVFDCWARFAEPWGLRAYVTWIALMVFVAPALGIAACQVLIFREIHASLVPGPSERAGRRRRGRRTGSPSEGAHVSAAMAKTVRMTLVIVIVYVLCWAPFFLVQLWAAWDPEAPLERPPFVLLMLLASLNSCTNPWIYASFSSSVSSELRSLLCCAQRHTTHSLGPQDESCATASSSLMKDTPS
Chain of Vasopressin V1a receptor (Rattus norvegicus, UniProt P30560) (P30560 whole entry): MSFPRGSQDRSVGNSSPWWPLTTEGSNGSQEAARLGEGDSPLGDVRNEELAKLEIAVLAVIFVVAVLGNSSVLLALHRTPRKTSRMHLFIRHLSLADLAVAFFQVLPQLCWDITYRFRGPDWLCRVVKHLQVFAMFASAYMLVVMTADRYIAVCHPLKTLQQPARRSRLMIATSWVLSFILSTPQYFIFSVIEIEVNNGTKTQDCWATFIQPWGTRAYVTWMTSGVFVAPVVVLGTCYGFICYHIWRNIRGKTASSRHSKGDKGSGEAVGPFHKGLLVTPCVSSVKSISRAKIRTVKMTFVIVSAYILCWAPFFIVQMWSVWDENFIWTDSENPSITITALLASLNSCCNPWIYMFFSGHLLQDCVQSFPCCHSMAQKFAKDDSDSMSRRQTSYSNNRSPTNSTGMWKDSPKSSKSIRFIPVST

Row | Structure (SMILES) | IC50 (Vasopressin V2 receptor [1]) [nM] | IC50 (Vasopressin V1a receptor [2]) [nM] | IC50 (Vasopressin V2 receptor [3]) [nM] | IC50 (Vasopressin V1a receptor [4]) [nM] | Activity (Vasopressin V2 receptor [5]) [%] | further results
1 | CNCC1=CC2(CC1)CCN(C(=O)c1ccc(NC(=O)c3ccccc3-c3ccccc3)cc1)c1ccccc1C2 (stereo not given) | 1800 | 630 | 44 | 18 | – | –
2 | Cc1ccc(F)cc1C(=O)Nc1ccc(C(=O)N2CCC3(C=C(C(=O)O)CC3)Cc3ccccc32)c(Cl)c1 (stereo not given) | – | – | – | – | 67 | Activity (Vasopressin V1a receptor [6]): 10%
3 | COc1cc(C(=O)N2CC[C@]3(C=C(C4=NCCN4)CC3)Cc3ccccc32)ccc1NC(=O)c1cc(F)ccc1Cl | 1050 | – | – | – | – | –
4 | COC(=O)C1=CC2(CC1)CCN(C(=O)c1ccc(NC(=O)c3ccccc3F)cc1)c1ccccc1C2 (stereo not given) | > 10000 | 130 | – | – | 23 | –
5 | COc1cc(C(=O)N2CCC3(C=C(C(=O)O)CC3)Cc3ccccc32)ccc1NC(=O)c1cc(F)ccc1Cl (stereo not given) | 120 | 89 | 92 | 19 | – | –
6 | COc1cc(C(=O)N2CC[C@]3(C=C(C(=O)O)CC3)Cc3ccccc32)ccc1NC(=O)c1cc(F)ccc1Cl | – | – | 34 | – | – | half-life [7]: 5.1 h; Activity (Rattus norvegicus [8]): 690%; solubility [9]: > 1000 µg/mL; IC50 (Vasopressin V1a receptor [10]): 640 nM; bioavailability [11]: 23%; bioavailability [12]: 68%; ED50 (Rattus norvegicus [13]): 0.644 mg/kg; Activity (Rattus norvegicus [14]): 87%; half-life [15]: 10.9 h; Activity (Rattus norvegicus [16]): 165%; Activity (Rattus norvegicus [17]): 48%; bioavailability [18]: 45%; Activity (Rattus norvegicus [19]): 130%; Activity (Canis familiaris [20]): -78%; Activity (Rattus norvegicus [21]): 52%; Activity (Rattus norvegicus [22]): 310%; half-life [23]: 8.7 h; Activity (Rattus norvegicus [24]): 83%; IC50 (Vasopressin V2 receptor [25]): 30 nM; Activity (Canis familiaris [26]): 1130%
7 | COC(=O)C1=CC2(CC1)CCN(C(=O)c1ccc(NC(=O)c3cc(F)ccc3Cl)cc1)c1ccccc1C2 (stereo not given) | > 10000 | 190 | > 200 | 40 | – | –
8 | O=C(O)C1=CC2(CC1)CCN(C(=O)c1ccc(NC(=O)c3ccccc3-c3ccccc3)cc1)c1ccccc1C2 (stereo not given) | 360 | – | – | – | – | –
9 | CNCC1=CC2(CC1)CCN(C(=O)c1ccc(NC(=O)c3cc(F)ccc3C)cc1Cl)c1ccccc1C2 (stereo not given) | – | – | – | – | 17 | Activity (Vasopressin V1a receptor [6]): 0%

The next lines start with results.

Row | IC50 (Vasopressin V2 receptor [1]) [nM] | IC50 (Vasopressin V1a receptor [2]) [nM] | IC50 (Vasopressin V2 receptor [3]) [nM] | IC50 (Vasopressin V1a receptor [4]) [nM] | Activity (Vasopressin V2 receptor [5]) [%] | Structure (SMILES) | further results
10 | 190 | 9 | – | – | – | O=C(Nc1ccc(C(=O)N2CCC3(C=C(CO)CC3)Cc3ccccc32)cc1)c1ccccc1-c1ccccc1 (stereo not given) | –
11 | 410 | 780 | 76 | 32 | – | O=C(O)C1=CC2(CC1)CCN(C(=O)c1ccc(NC(=O)c3cc(F)ccc3Cl)cc1)c1ccccc1C2 (stereo not given) | –
12 | 36 | 45 | 8 | 2 | – | CN(C)CCNC(=O)C1=C[C@@]2(CC1)CCN(C(=O)c1ccc(NC(=O)c3ccccc3-c3ccccc3)cc1)c1ccccc1C2 | –
13 | 140 | 11600 | – | – | – | COc1cc(NC(=O)c2cc(F)ccc2C)ccc1C(=O)N1CCC2(C=C(C(=O)O)CC2)Cc2ccccc21 (stereo not given) | Activity (Vasopressin V1a receptor [6]): 15%
14 | – | – | – | 100 | 66 | Cc1ccc(F)cc1C(=O)Nc1ccc(C(=O)N2CCC3(C=C(CO)CC3)Cc3ccccc32)c(Cl)c1 (stereo not given) | –
15 | – | > 5000 | – | – | – | Cc1ccc(F)cc1C(=O)Nc1ccc(C(=O)N2Cc3cccn3Cc3ccccc32)c(Cl)c1 [LIXIVAPTAN] | –
16 | – | – | – | 100 | 15 | O=C(O)C1=CC2(CC1)CCN(C(=O)c1ccc(NC(=O)c3ccccc3F)cc1)c1ccccc1C2 (stereo not given) | –
